One block for each compound: values may come before it.
Assays:
Assay in all cases: -log10 GI50 (growth inhibition 50%) (-log10(M)); higher = more potent growth inhibition
HCC1395 = test system: HCC1395
Outline: (§1)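 A value carrying a < qualifier equals the top dose tested. Each compound was tested in triplicate on breast cancer cell lines for 72 hours at nine doses in 1:5 serial dilution, using a luminescence read-out against a time-zero plate. Nonlinear least squares fitting of a Gompertz curve gave GI50, the molar concentration causing the set level of growth inhibition, which is reported as its negative logarithm. The logarithm is base 10.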

HCC1428 = test system: HCC1428
Outline: as §1

600MPE = test system: 600MPE
Outline: as §1

UACC812 = test system: UACC812
Outline: as §1

HCC1806 = test system: HCC1806
Outline: as §1

184A1 = test system: 184A1
Outline: as §1

SUM1315MO2 = test system: SUM1315MO2
Outline: as §1

SUM185PE = test system: SUM185PE
Outline: as §1

ZR751 = test system: ZR751
Outline: as §1

SUM52PE = test system: SUM52PE
Outline: as §1

SUM225CWN = test system: SUM225CWN
Outline: as §1

HCC1187 = test system: HCC1187
Outline: as §1

MDAMB175VII = test system: MDAMB175VII
Outline: as §1

T47D_KBluc = test system: T47D_KBluc
Outline: as §1

HCC1419 = test system: HCC1419
Outline: as §1

BT483 = test system: BT483
Outline: as §1

MDAMB134VI = test system: MDAMB134VI
Outline: as §1

HCC2185 = test system: HCC2185
Outline: as §1

MCF12A = test system: MCF12A
Outline: as §1

HCC3153 = test system: HCC3153
Outline: as §1

184B5 = test system: 184B5
Outline: as §1

MDAMB157 = test system: MDAMB157
Outline: as §1

MDAMB415 = test system: MDAMB415
Outline: as §1

AU565 = test system: AU565
Outline: as §1

HCC38 = test system: HCC38
Outline: as §1

MCF7 = test system: MCF7
Outline: as §1

HCC1143 = test system: HCC1143
Outline: as §1

BT549 = test system: BT549
Outline: as §1

LY2 = test system: LY2
Outline: as §1

SKBR3 = test system: SKBR3
Outline: as §1

MCF10F = test system: MCF10F
Outline: as §1

BT474 = test system: BT474
Outline: as §1

T47D = test system: T47D
Outline: as §1

HS578T = test system: HS578T
Outline: as §1

BT20 = test system: BT20
Outline: as §1

MX1 = test system: MX1
Outline: as §1

MDAMB231 = test system: MDAMB231
Outline: as §1

SUM159PT = test system: SUM159PT
Outline: as §1

HCC1569 = test system: HCC1569
Outline: as §1

SUM149PT = test system: SUM149PT
Outline: as §1

HCC1937 = test system: HCC1937
Outline: as §1

HCC70 = test system: HCC70
Outline: as §1

CAMA1 = test system: CAMA1
Outline: as §1

MDAMB453 = test system: MDAMB453
Outline: as §1

HCC1954 = test system: HCC1954
Outline: as §1

ZR75B = test system: ZR75B
Outline: as §1

MCF10A = test system: MCF10A
Outline: as §1

SUM229PE = test system: SUM229PE
Outline: as §1

MDAMB361 = test system: MDAMB361
Outline: as §1

HBL100 = test system: HBL100
Outline: as §1

HCC202 = test system: HCC202
Outline: as §1

-log10 GI50 (HCC1395): 5.73
-log10 GI50 (HCC1428): 6.94
-log10 GI50 (HCC1806): 7.67
-log10 GI50 (HCC1187): 6.09
-log10 GI50 (MDAMB175VII): 6.64
-log10 GI50 (T47D_KBluc): 6.71
-log10 GI50 (HCC1419): 6.68
-log10 GI50 (BT483): 5.53
-log10 GI50 (MDAMB134VI): 7.06
-log10 GI50 (HCC2185): 5.62
-log10 GI50 (HCC3153): 6.44
-log10 GI50 (MDAMB157): 7.25
-log10 GI50 (MDAMB415): 6.95
-log10 GI50 (HCC38): 7.3
-log10 GI50 (MCF7): 7.16
-log10 GI50 (HCC1143): 6.58
-log10 GI50 (BT549): 6.54
-log10 GI50 (SKBR3): 6.82
-log10 GI50 (BT474): 6.24
-log10 GI50 (T47D): 6.93
-log10 GI50 (BT20): 5.7
-log10 GI50 (MDAMB231): 7.03
-log10 GI50 (HCC1569): 4.86
-log10 GI50 (HCC1937): 5.58
-log10 GI50 (MDAMB453): 5.81
-log10 GI50 (HCC1954): 5.35
-log10 GI50 (MDAMB361): 7.03
SMILES: NS(=O)(=O)OC[C@@H]1C[C@@H](n2ccc3c(N[C@H]4CCc5ccccc54)ncnc32)C[C@@H]1O [MLN4924]
-log10 GI50 (600MPE): 6.49
-log10 GI50 (UACC812): 5.98
-log10 GI50 (184A1): 6.24
-log10 GI50 (SUM1315MO2): 5.67
-log10 GI50 (SUM185PE): 7.27
-log10 GI50 (ZR751): 5.32
-log10 GI50 (SUM52PE): 6.41
-log10 GI50 (SUM225CWN): 5.28
-log10 GI50 (MCF12A): 7.04
-log10 GI50 (184B5): 6.93
-log10 GI50 (AU565): 6.74
-log10 GI50 (LY2): 7
-log10 GI50 (MCF10F): 6.2
-log10 GI50 (HS578T): 6.63
-log10 GI50 (MX1): 5.7
-log10 GI50 (SUM159PT): 6.31
-log10 GI50 (SUM149PT): 6.73
-log10 GI50 (HCC70): 5.47
-log10 GI50 (CAMA1): 7.29
-log10 GI50 (ZR75B): 6.84
-log10 GI50 (MCF10A): 6.31
-log10 GI50 (SUM229PE): 6.59

-log10 GI50 (HCC1395): < 3.78
-log10 GI50 (HCC1428): 4.18
-log10 GI50 (HCC1806): 4.14
-log10 GI50 (HCC1187): 4.63
-log10 GI50 (MDAMB175VII): 4.12
-log10 GI50 (T47D_KBluc): < 3.78
-log10 GI50 (HCC1419): < 3.78
-log10 GI50 (BT483): 4.4
-log10 GI50 (MDAMB134VI): 4.26
-log10 GI50 (HCC2185): 4.43
-log10 GI50 (HCC3153): 3.83
-log10 GI50 (MDAMB157): < 3.78
-log10 GI50 (MDAMB415): < 3.78
-log10 GI50 (HCC38): < 3.78
-log10 GI50 (MCF7): 4.29
-log10 GI50 (HCC1143): < 3.78
-log10 GI50 (BT549): < 3.78
-log10 GI50 (SKBR3): 4.19
-log10 GI50 (BT474): < 3.78
-log10 GI50 (T47D): < 3.78
-log10 GI50 (BT20): 4.57
-log10 GI50 (MDAMB231): < 3.78
-log10 GI50 (HCC1569): 4.7
-log10 GI50 (HCC1937): 4.37
-log10 GI50 (HCC202): 4.02
-log10 GI50 (MDAMB453): < 3.78
-log10 GI50 (HCC1954): 4.11
-log10 GI50 (MDAMB361): < 3.78
SMILES: CC(C)[C@H](CO)Nc1nc(Nc2cccc(Cl)c2)c2ncn(C(C)C)c2n1 [Purvalanol A]
-log10 GI50 (600MPE): 4.15
-log10 GI50 (184A1): 4.62
-log10 GI50 (SUM1315MO2): 5.09
-log10 GI50 (SUM185PE): 4.69
-log10 GI50 (ZR751): < 3.78
-log10 GI50 (SUM52PE): 4.79
-log10 GI50 (SUM225CWN): 4.36
-log10 GI50 (MCF12A): 4.15
-log10 GI50 (184B5): 5.52
-log10 GI50 (AU565): 4.39
-log10 GI50 (MCF10F): 4.74
-log10 GI50 (HS578T): < 3.78
-log10 GI50 (HBL100): 4.6
-log10 GI50 (MX1): < 3.78
-log10 GI50 (SUM159PT): < 3.78
-log10 GI50 (SUM149PT): 4.88
-log10 GI50 (HCC70): < 3.78
-log10 GI50 (CAMA1): 3.87
-log10 GI50 (ZR75B): < 3.78
-log10 GI50 (MCF10A): 4.29
-log10 GI50 (SUM229PE): 4.91
